Results on 2 compounds are retold here after patent US20260041653A1, “AN HDAC INHIBITOR FOR TREATING CANCER WITH A MODIFIED STK11 ACTIVITY OR EXPRESSION” (Tango Therapeutics, Inc., priority 2022, published 2026).

For one data set, the target named is T1, HDAC10 (Homo sapiens, UniProt Q969S8).
T1 construct: expressed in transfected cells
Nature of the data set: Cellular NanoBRET assay, HDAC10. In kind it is cell-based. (Bioluminescence resonance energy transfer reports proximity on the nanometre scale.)

Data set [1] can be described thus: Caverage in mice with STK11-deleted MC38 tumors. As to conditions: doses used in FIG. 12B and 12C. In kind it is in vivo, mouse.

Marks after values point to notes of the source that are not given here.

T1 sequence (Q969S8 whole entry): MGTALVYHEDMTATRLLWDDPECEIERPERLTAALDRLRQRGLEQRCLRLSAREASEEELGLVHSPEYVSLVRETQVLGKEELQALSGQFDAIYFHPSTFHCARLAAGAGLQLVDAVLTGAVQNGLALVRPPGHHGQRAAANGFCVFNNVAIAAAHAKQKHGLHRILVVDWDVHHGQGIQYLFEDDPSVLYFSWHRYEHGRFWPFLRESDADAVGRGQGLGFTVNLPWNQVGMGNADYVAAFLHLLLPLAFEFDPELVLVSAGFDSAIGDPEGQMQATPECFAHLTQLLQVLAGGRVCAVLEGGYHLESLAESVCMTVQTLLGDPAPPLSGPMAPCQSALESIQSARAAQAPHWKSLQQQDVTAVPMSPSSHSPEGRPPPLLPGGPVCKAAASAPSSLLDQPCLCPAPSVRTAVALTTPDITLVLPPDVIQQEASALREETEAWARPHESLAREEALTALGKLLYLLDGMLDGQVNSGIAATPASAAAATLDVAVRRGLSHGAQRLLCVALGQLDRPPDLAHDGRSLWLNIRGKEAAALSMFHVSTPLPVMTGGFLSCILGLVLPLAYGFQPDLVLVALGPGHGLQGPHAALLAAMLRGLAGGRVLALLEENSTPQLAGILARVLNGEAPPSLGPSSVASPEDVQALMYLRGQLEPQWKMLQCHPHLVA

Consider `Nc1cc(F)ccc1NC(=O)c1ccc(CNC(=O)/C=C/c2cccnc2)cc1` [Chidamide, reference compound], for which the IC50 (as a rule, the point on the concentration scale where inhibition reaches its midpoint) on HDAC10 was more than 30 µM.

Turning to `O=C(CCCCCCC(=O)Nc1ccccc1)NO` [Vorinostat, reference compound], the “Cavg, u” value in data set [1] was 0.132* uM.
